This note sets out measurements from US20260356851A1, “TRICYCLIC COMPOUNDS AND USES THEREOF” (HUTCHMED LIMITED, priority 2023, published 2026).

A word on the pIC50: it is −log10 of the IC50, conventionally taken in molar units.

Type in all cases: cell-based
Assay [1] has as its target T1, pERK1/2 (Thr202/Tyr204), NCI-1H358 (KRAS G12C) (Homo sapiens, UniProt P01116, G12C).
T1 construct: pERK1/2 HTRF read-out
The assay is described as follows: Assay of intracellular pERK1/2 (Thr202/Tyr204) phosphorylation in NCI-H358 cells (KRAS G12C). The settings on record: pERK1/2, 2 days, read-out: NCI-H358 (KRAS G12C) IC50. In a few lines: (§1)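 Cells (10000-12000/well) exposed to 3-fold compound dilutions for 2 days at 37 °C, then lysed; pERK1/2 (Thr202/Tyr204) measured by HTRF with d2 and cryptate antibodies, 665/615 nm ratio.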

Assay [2] concerns the target T2, pERK1/2 (Thr202/Tyr204), PANC-1 (KRAS G121D) (Homo sapiens, UniProt P01116, G12D).
T2 construct: pERK1/2 HTRF read-out
The assay is described as follows: Assay of intracellular pERK1/2 (Thr202/Tyr204) phosphorylation in PANC-1 cells (KRAS G12D). The note with it: pERK1/2, 2 days, read-out: PANC-1 (KRAS G12D) IC50. In a few lines:
as §1

Assay [3] has as its target T3, pERK1/2 (Thr202/Tyr204), NCI-1H441 (KRAS G12V) (Homo sapiens, UniProt P01116, G12V).
T3 construct: pERK1/2 HTRF read-out
Description: Assay of intracellular pERK1/2 (Thr202/Tyr204) phosphorylation in NCI-H441 cells (KRAS G12V). The note with it: pERK1/2, 2 days, read-out: NCI-H441 (KRAS G12V) IC50. In a few lines:
as §1

pIC50: −log10 of the molar value.

T2 sequence (P01116 1-188 isoform P01116-2 G12D): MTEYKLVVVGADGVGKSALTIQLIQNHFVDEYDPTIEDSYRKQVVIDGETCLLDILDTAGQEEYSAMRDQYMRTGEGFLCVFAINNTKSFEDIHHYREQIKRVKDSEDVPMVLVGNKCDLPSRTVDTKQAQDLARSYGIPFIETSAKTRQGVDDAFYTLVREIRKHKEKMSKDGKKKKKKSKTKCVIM
T1 sequence (P01116 1-188 isoform P01116-2 G12C): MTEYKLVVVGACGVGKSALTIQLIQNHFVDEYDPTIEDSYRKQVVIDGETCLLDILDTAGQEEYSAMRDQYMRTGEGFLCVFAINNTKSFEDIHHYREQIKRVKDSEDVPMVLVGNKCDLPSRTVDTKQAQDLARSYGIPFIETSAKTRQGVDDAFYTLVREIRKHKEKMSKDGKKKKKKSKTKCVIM
T3 sequence (P01116 1-188 isoform P01116-2 G12V): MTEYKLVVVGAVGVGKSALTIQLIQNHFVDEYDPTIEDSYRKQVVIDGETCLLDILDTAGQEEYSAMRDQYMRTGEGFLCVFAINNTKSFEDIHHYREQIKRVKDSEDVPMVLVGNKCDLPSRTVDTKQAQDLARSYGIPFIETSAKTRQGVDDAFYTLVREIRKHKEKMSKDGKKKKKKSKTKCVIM

Regarding `Cc1c(F)c(N)cc(-c2nc3c4c(nc(OC[C@@]56CCCN5C[C@@]5(CC5(F)F)C6)nc4c2F)N(C(C)c2cccnc2N)CCO3)c1C(F)(F)F` (single isomer, unassigned; diastereomer 1) [Compound 238, (*)3-(1-(5-(5-amino-4-fluoro-3-methyl-2-(trifluoromethyl)phenyl)-2-(((1R or 1S,7a′S)-2,2-difluorodihydro-1′H,3′H-spiro[cyclopropane-1,2′-pyrrolizin]-7a′(5′H)-yl)methoxy)-4-fluoro-8,9-dihydro-10H-7-oxa-1,3,6,10-tetraazacyclohepta[de]naphthalen-10-yl)ethyl)pyridin-2-amine (diastereomer 1)], the pIC50 in assay [1] is 9.70; in assay [2] it was 9.10; in assay [3] it was 9.22.
In the case of `Cc1c(F)c(N)cc(-c2nc3c4c(nc(OCC56CC(F)CN5CC(F)C6)nc4c2F)N(C(C)c2cccnc2N)CCO3)c1C(F)(F)F` (single isomer, unassigned; diastereomer 1) [Compound 241, (*)3-(1-(5-(5-amino-4-fluoro-3-methyl-2-(trifluoromethyl)phenyl)-2-(((2R or 2S,6R or 6S)-2,6-difluorotetrahydro-1H-pyrrolizin-7a(5H)-yl)methoxy)-4-fluoro-8,9-dihydro-10H-7-oxa-1,3,6,10-tetraazacyclohepta[de]naphthalen-10-yl)ethyl)pyridin-2-amine (diastereomer 1)], the pIC50 in assay [1] was 9.70; in assay [2] it was 7.89; in assay [3], 9.05.
For `CC(c1cccnc1N)N1CCOc2nc(-c3cc(N)c(F)c(Cl)c3C(F)(F)F)c(F)c3nc(OCC45CC(F)CN4CC(F)C5)nc1c23` (single isomer, unassigned; diastereomer 1) [Compound 245, (*)3-(1-(5-(5-amino-3-chloro-4-fluoro-2-(trifluoromethyl)phenyl)-2-(((2R or 2S,6R or 6S)-2,6-difluorotetrahydro-1H-pyrrolizin-7a(5H)-yl)methoxy)-4-fluoro-8,9-dihydro-10H-7-oxa-1,3,6,10-tetraazacyclohepta[de]naphthalen-10-yl)ethyl)pyridin-2-amine (diastereomer 1)], the figures for the pIC50 in assay [1], in assay [2] and in assay [3] were 9.70, 8.00 and 9.30, respectively.
As for `CC(c1cccnc1N)N1c2nc(OC[C@@]34CCCN3C[C@H](F)C4)nc3c(F)c(-c4c(C(F)(F)F)ccc5c4CCCN5)nc(c23)OC[C@@H]1C` (single isomer, unassigned; diastereomer 1) [Compound 338, (*)3-(1-((5R or 5S,9S)-4-fluoro-2-(((2R,7aS)-2-fluorotetrahydro-1H-pyrrolizin-7a(5H)-yl)methoxy)-9-methyl-5-(6-(trifluoromethyl)-1,2,3,4-tetrahydroquinolin-5-yl)-8,9-dihydro-10H-7-oxa-1,3,6,10-tetraazacyclohepta[de]naphthalen-10-yl)ethyl)pyridin-2-amine (diastereomer 1)], the figures for the pIC50 in assay [1], in assay [2] and in assay [3] were 7.64, < 7.00 and 7.31, respectively.
As to `[2H]C1([2H])CC[C@@]2(C([2H])([2H])Oc3nc4c5c(nc(-c6cc(N)c(F)c(C)c6C(F)(F)F)c(F)c5n3)OCCN4C(C)c3cccnc3N)C[C@]([2H])(F)CN12` (single isomer, unassigned; diastereomer 2) [Compound 179, (*)3-(1-(5-(5-amino-4-fluoro-3-methyl-2-(trifluoromethyl)phenyl)-4-fluoro-2-(((2R or 2S,7aS)-2-fluorotetrahydro-1H-pyrrolizin-7a(5H)-yl-2,5,5-d3)methoxy-d2)-8,9-dihydro-10H-7-oxa-1,3,6,10-tetraazacyclohepta[de]naphthalen-10-yl)ethyl)pyridin-2-amine (diastereomer 2)], the figures for the pIC50 in assay [1], in assay [2] and in assay [3] were 9.00, 7.70 and 8.52, respectively.
The matching figures for `Cc1c(F)c(N)cc(-c2nc3c4c(nc(OC[C@@]56CCCN5C[C@]5(CC5(F)F)C6)nc4c2F)N(C(C)c2cccnc2N)CCO3)c1C(F)(F)F` (single isomer, unassigned; diastereomer 2) [Compound 239, (*)3-(1-(5-(5-amino-4-fluoro-3-methyl-2-(trifluoromethyl)phenyl)-2-(((1R or 1S,7a′S)-2,2-difluorodihydro-1′H,3′H-spiro[cyclopropane-1,2′-pyrrolizin]-7a′(5′H)-yl)methoxy)-4-fluoro-8,9-dihydro-10H-7-oxa-1,3,6,10-tetraazacyclohepta[de]naphthalen-10-yl)ethyl)pyridin-2-amine (diastereomer 2)]: 9.52, 8.70 and 9.40.
Take `Cc1c(F)c(N)cc(-c2nc3c4c(nc(OCC56CC(F)CN5CC(F)C6)nc4c2F)N(C(C)c2cccnc2N)CCO3)c1C(F)(F)F` (single isomer, unassigned; diastereomer 2) [Compound 242, (*)3-(1-(5-(5-amino-4-fluoro-3-methyl-2-(trifluoromethyl)phenyl)-2-(((2R or 2S,6R or 6S)-2,6-difluorotetrahydro-1H-pyrrolizin-7a(5H)-yl)methoxy)-4-fluoro-8,9-dihydro-10H-7-oxa-1,3,6,10-tetraazacyclohepta[de]naphthalen-10-yl)ethyl)pyridin-2-amine (diastereomer 2)]: the figures for the negative logarithm of the IC50 (pIC50) in assay [1], in assay [2] and in assay [3] were 9.40, < 7.00 and 8.52, respectively.
On the same counts, the results for `CC(c1cccnc1N)N1CCOc2nc(-c3cc(N)c(F)c(Cl)c3C(F)(F)F)c(F)c3nc(OCC45CC(F)CN4CC(F)C5)nc1c23` (single isomer, unassigned; diastereomer 2) [Compound 246, (*)3-(1-(5-(5-amino-3-chloro-4-fluoro-2-(trifluoromethyl)phenyl)-2-(((2R or 2S,6R or 6S)-2,6-difluorotetrahydro-1H-pyrrolizin-7a(5H)-yl)methoxy)-4-fluoro-8,9-dihydro-10H-7-oxa-1,3,6,10-tetraazacyclohepta[de]naphthalen-10-yl)ethyl)pyridin-2-amine (diastereomer 2)] are 9.40, 7.20 and 8.70.
Turning to `CC(c1cccnc1N)N1c2nc(OC[C@@]34CCCN3C[C@H](F)C4)nc3c(F)c(-c4c(C(F)(F)F)ccc5c4CCCN5)nc(c23)OC[C@@H]1C` (single isomer, unassigned; diastereomer 2) [Compound 339, (*)3-(1-((5R or 5S,9S)-4-fluoro-2-(((2R,7aS)-2-fluorotetrahydro-1H-pyrrolizin-7a(5H)-yl)methoxy)-9-methyl-5-(6-(trifluoromethyl)-1,2,3,4-tetrahydroquinolin-5-yl)-8,9-dihydro-10H-7-oxa-1,3,6,10-tetraazacyclohepta[de]naphthalen-10-yl)ethyl)pyridin-2-amine (diastereomer 2)], the pIC50 in assay [1], in assay [2] and in assay [3] was < 7.00 in each case.
